Assay [1] relates to U251 derived tumor. The assay can be described thus: SR101 staining of acute slices from U251 rodent xenografts, confocal imaging. Type of assay: cell-based, human astrocytoma cells implanted in nude rats. The procedure:
Animals were anesthetized by intramuscular injection of a mixture of 10 mg/kg xylazine and 80 mg/kg ketamine (Wyeth, Madison, N.J.) and placed in a small animal stereotactic headframe (Model 900, David Kopf Instruments, Tujunga, Calif.). A 10-mm incision was made starting between the animal's eyes, exposing bregma. A bur hole was made 3.5 mm lateral to bregma. U251 or MC116 cells were infused at a depth of 4.5 mm below the surface of the brain after the syringe (Hamilton) was advanced 5.0 mm to create a 0.5-mm pocket. The cell suspension was infused using a UMP3-1 UltraMicroPump microinjector (WPI, Sarasota, Fla.) set to a volume of […] with an infusion rate of 3.00 μL/minute. The needle was withdrawn 2 minutes after the injection to minimize backflow of the cell suspension. The bur hole was covered with bone wax and the skin incision was sutured.
Twenty days post-implantation, rats were deeply anesthetized using the xylazine/ketamine mixture as described previously. Animals were rapidly decapitated, brains were removed, and coronal cortical slices (350 μm thick) were cut on a vibratome (Trent's aCSF protocol). Slices were then incubated at room temperature in aCSF containing 5 uM SR101 for 20 minutes followed by a 10 minute wash in aCSF.
(§1) SR101-labeled samples were placed in uncoated No. 1.5 glass-bottom dishes and positioned on the stage of a Zeiss 710 laser scanning confocal microscope equipped with a 40×/1.2 NA water emersion objection. We imaged SR101 by exciting the fluorophore with a 561 nm diode laser and collecting 595 nm-625 nm emission. The confocal aperature was set to Airy unit for all imaging. The laser and gain values were set to fill the dynamic range of the photomultiplier tube, and the frame size was set to sample at nyquist. Images were collected in 8 and 12 bit format absent of non-linear processing. An unstained adjacent tissue sample was imaged with each sample. In some cases, large field-of-view tiled and optically sectioned images were rapidly acquired using a Zeiss line-sweeping confocal microscope. […]
Background: Xenograft models place foreign cells or tissue in a host animal.

In assay [2] the test system is human brain tumor biopsies. Description: SR101 staining of fresh human brain tumor biopsies, confocal imaging. It counts as cell-based. The method, then:
This research was approved by the institutional review board at St. Joseph's Hospital and Medical Center and all surgery was performed at the Barrow Neurological Institute. All subjects were consented pre-operatively for participation. Samples were obtained at the time of craniotomy from within the tumor mass at a location determined to be safe by the surgeon. The samples, averaging 4×2×2 mm in size, were transferred into ice-cold artificial cerebrospinal fluid (aCSF) containing 5 uM SR101. Samples were then transferred from the operating room to the laboratory, rinsed with aCSF (10 minutes), and immediately imaged.
SR101-labeled samples were placed in uncoated No. 1.5 glass-bottom dishes and positioned on the stage of a Zeiss 710 laser scanning confocal microscope equipped with a 40×/1.2 NA water emersion objection. We imaged SR101 by exciting the fluorophore with a 561 nm diode laser and collecting 595 nm-625 nm emission. The confocal aperature was set to Airy unit for all imaging. The laser and gain values were set to fill the dynamic range of the photomultiplier tube, and the frame size was set to sample at nyquist. Images were collected in 8 and 12 bit format absent of non-linear processing. An unstained adjacent tissue sample was imaged with each sample. In some cases, large field-of-view tiled and optically sectioned images were rapidly acquired using a Zeiss line-sweeping confocal microscope. Frame size for this system was fixed to 512×512 by a linear charged coupled device (CCD) array.
After we identified SR101's ability to rapidly label and differentiate astrocytoma cells and reactive astrocytes in animal models, we tested its utility as an intraoperative diagnostic agent. We determined the feasibility of intraoperatively identifying astrocytic brain tumors by confocal fluorescence imaging of fresh human brain tumor biopsies labeled with SR101. We screened samples from 60* patients with a total of 10 common human brain tumor types. The diagnosis as determined by traditional immunohistochemistry and paraffin-embedded hematoxylin and eosin histopathology was accepted as the final diagnosis for the purposes of comparison.
Tissue samples were transported in artificial cerebrospinal fluid and imaged within 30-40 minutes of resection. We first found SR101 filled the cytoplasm of astrocytes in non-tumor burdened brain (FIG. 4A). Next, we studied tissue sampled from tumor margins and found SR101 filled the cytoplasm of reactive astrocytes and tumor cells in these regions (FIG. 4B). […] At higher magnification we observed that SR101 delineated some cell nuclei and identified nuclear atypia which is a common feature of some gliomas (FIG. 4C).

For assay [3], the system named is GFAP-positive astrocytoma cells (U251). Description: Fixable SR101 co-labeling with GFAP in astrocytoma xenograft acute slices, confocal stereology. It counts as cell-based, human astrocytoma cells implanted in nude rats. The settings on record: for cells positive for fixable SR101 in astrocytoma tumor regions: tumor core, acute slices, GFAP and DAPI counterstain. The method, then:
(§2) Xenograft acute slices were incubated with the fixable version of SR101 (Texas Red Hydrazide; Sigma), washed at room temperature, and fixed with 4% paraformaldehyde for 12 hours at 4 degrees C. Slices were then rinsed in phosphate buffered saline, permeabilized with 0.3% triton, and blocked with CAS block (Invitrogen) (reference Pierre's paper). GBM xenograft slices were incubated 12-hours in anti-GFAP primary antibody (Millipore; 1:500), and Lymphoma sections were incubated 12-hours in anti-CD20 primary antibody (Millipore; 1:250). Sections were then rinsed and incubated with AlexaFluor488 secondary antibody (Invitrogen), followed by nuclear counterstaining with Dapi (Invitrogen). Fluorescently labeled sections were mounted on slides with vectashield (Vector labs) and No1.5 coverslips (VWR).
We randomly selected one rostral, midline, and caudal acute slice from each brain containing tumor incubated with fixable SR101. Glioma slices were immunofluorescently stained for GFAP, and slices containing lymphoma were stained for CD20. Ten randomly selected 150 um^2 tumor areas in each slice were optically sectioned to 50 um with a Zeiss 710LSM. The first […] of each image stack was discarded to minimize counts from cells damaged during sectioning. A maximum intensity projection image was generated from the remaining 45 um, and a stereology dissector was overlaid onto the image. Cells within the dissector, and those in contact with its left and bottom edges were counted for either GFAP or CD20 positivity, and for SR101 positivity. The percent overlap between immunostaining and SR101 positivity was calculated. […]
(§3) Next, we incubated acute slices from astrocytoma and CNS lymphoma animal models with fixable-SR101 and quantified the staining localization to GFAP for astrocytoma slices and CD20 for lymphoma slices. We adapted standard stereology approaches to quantify tumor cells labeled with fixable-SR101 and GFAP or CD20 antibodies. […]

Assay [4] relates to CD20 positive lymphoma cells (MC116). Description: SR101 / fixable SR101 staining and CD20 co-labeling in CNS lymphoma xenograft acute slices, confocal stereology. It counts as cell-based, human CNS lymphoma cells implanted in nude rats. The method, then: as §2, with “Fluorescently labeled sections were mounted on slides with vectashield (Vector labs) and No1.5 coverslips (VWR).” left out
We randomly selected one rostral, midline, and caudal acute slice from each brain containing tumor incubated with fixable SR101. […] Cells within the dissector, and those in contact with its left and bottom edges were counted for either GFAP or CD20 positivity, and for SR101 positivity. The percent overlap between immunostaining and SR101 positivity was calculated. […]
as §3

Assay [5] concerns human glioma cell line U251. Description: In vitro SR101 labeling of cultured astrocytoma cells. Type of assay: cell-based. The settings on record: 5 uM SR101, 20 minutes, DIC imaging with fluorescence overlay. The procedure: We acquired human glioma cell line U251 and human CNS lymphoma cell line MC116 from ATCC. Cells were maintained in culture with DMEM media supplemented with 10% FBS, and RPMI media supplemented with 20% FBS respectively (all from Invitrogen, Grand Island, N.Y.). Cells were grown at 37° C. in a humidified incubator under 5% CO2.
We labeled U251 glioma cells by seeding a collagen-coated glass-bottom dish (MatTek) with 100,000 cells. After 24 hours, media was replaced with aCSF containing 5 uM SR101 (Sigma) for 20 minutes, followed by two 5 minute washes with standard aCSF.
as §1

Assay [6] concerns human glioma cells in a rodent xenograft. The assay can be described thus: In vivo labeling after intra-arterial injection of fixable SR101. More on the design: species or system rat. The settings on record: brains processed two hours post-injection. From the text: Twenty days post-implantion, rats were deeply anesthetized using the previously described ketamin/xylazine mixture. The rats were then intra-arterially injected with Texas red hydrazide. Two hours post-injection brains were perfused, fixed, and sectioned on a cryostat. Sections were mounted on slides and imaged with a Zeiss LSM 710 confocal microscope.

We go through two molecules from patent publication US11207427B2, “System and method for diagnosis of astrocytic brain tumor” (Dignity Health, priority 2012, dated 2021).

Entries after “also recorded” stand apart in the source; their conditions may differ.

Turning to `O=S(=O)([O-])c1cc(S(=O)(=O)O)ccc1C1=c2cc3c4c(c2Oc2c1cc1c5c2CCCN5CCC1)CCC[N+]=4CCC3` [SR101, Sulforhodamine 101], in assay [1] (SR101-labeled tumor core, acute slice, 5 uM SR101 20 minutes), the “mean fluorescence intensity (MFI), tumor” value is 102.84. The “mean fluorescence intensity (MFI), background” value in assay [1] (background of SR101-labeled tumor core image, acute slice) is 8.74. In assay [1] (normalized to background, n=9 optical sections from 3 acute slices), the “difference in mean fluorescence intensity between U251 cells and reactive astrocytes” value is recorded as “no statistically significant difference; also recorded: did not differ”. Moreover, in assay [2] (human biopsies), the “staining of human lymphoma” value is “negative; also recorded: failed to stain”. In assay [2] (human biopsies versus final diagnosis), the “astrocytoma cases selectively stained” value was 14 of 15. Besides, in assay [2] (human biopsies, 5 uM SR101), the “staining of cells from astrocytoma tumor cores” value was “strong cytoplasmic staining” and the “staining of non-astrocytic tumor samples / other CNS neoplasms” value is listed as “did not stain; also recorded: non-specific background staining”. In addition, the “labeling of low grade human oligodendroglioma samples” value in assay [2] (human biopsies, samples often GFAP positive) is on record as “does not stain; also recorded: did not label”. The “co-localization with GFAP-positive cells in astrocytoma regions” value in assay [3] (U251 xenograft acute slices, fixable SR101, stereology) amounted to 79.6%. Also, in assay [4] (MC116 xenograft acute slices, fixable SR101, stereology), the “co-localization with CD20 positive cells in lymphoma tumor regions” value was found to be 1.97%. The “SR101 signal / cells labeled in lymphoma regions” value in assay [4] (acute slices from nude rats implanted with human CNS lymphoma cells) is reported as “minimal; also recorded: small number of cells”. In addition, the “SR101 labeling of cultured U251 astrocytoma cells” value in assay [5] was “filled the cytoplasm of the cultured cell and clearly delineated cell nuclei”.
`NNS(=O)(=O)c1ccc(C2=c3cc4c5c(c3Oc3c2cc2c6c3CCCN6CCC2)CCC[N+]=5CCC4)c(S(=O)(=O)[O-])c1` [fixable SR101, Texas Red Hydrazide]: the “cells positive for fixable SR101 in astrocytoma tumor regions” value in assay [3] is listed as “majority of cells were positive”; in assay [3] (listed as Fixable-SR101), “labeled the majority of cells”. The “in vivo labeling of tumor cells and tumor margin” value in assay [6] is on record as “specific in vivo labeling of human glioma cells”.
